This is an account of results in US20140079741A1, “INHIBITION AND TREATMENT OF BIOFILMS” (priority 2011, published 2014).

Entries after “also recorded” stand apart in the source; their conditions may differ.

Assay [1] has as its system C. albicans WT CAF2-1 biofilms. As to the kind of experiment: Biofilm cell viability by CellTiter-Blue staining. The assay is classed as cell-based, Candida albicans. The settings on record: WT biofilms grown with 0.5-3 mM diclofenac, various caspofungin concentrations, 24 h. As to the method:
To this end, cultures of the WT CAF2-1 were grown overnight (2*10^8 cells/ml) in YPD (1% yeast extract, 2% peptone, 2% glucose) and washed 3 times in PBS (pH 7.4). After dilution (OD600=0.5) in SC (1% CSM, complete amino acid supplement mixture, 1% YNB, yeast nitrogen base; 2% glucose), the cultures were resuspended (100 μl/well) in a 96well microtiter plate. After 1 h of adhesion, the adherent WT cells were incubated with or without 2 mM (about 500 μg/ml) diclofenac (in DMSO, resulting in final concentration of 2.4% DMSO) and allowed biofilm growth for 16 h in SC. Next, the resulting biofilms were washed with PBS and treated with various concentrations of miconazole (0-500 μM) for 24 h in the absence or presence of diclofenac. After washing, the remaining living cells using the CellTiter-Blue quantification method were determined.
(§1) Using the same setup as above, WT biofilms grown in the presence or absence of diclofenac (0.5-3 mM or 148-888 μg/mL) were incubated with various concentrations of Caspofungin (0-150 μM) for 24 h, both in the presence or absence of diclofenac. After washing, the remaining living cells within the biofilm was determined by CellTiter-Blue quantification. The MIC50 of caspofungin, diclofenac and the combination of both drugs against pretreated or mature C. albicans biofilms was quantified by XTT reduction assay (Ramage et al.).

Assay [2] deals with C. albicans biofilms grown on catheters. The experiment in a line: In vitro biofilm drug susceptibility on polyurethane catheter pieces (CFU). Type of assay: cell-based, Candida albicans. On the procedure: In an alternative setup, in vitro biofilm drug susceptibility assays were performed using serum-coated 1 cm polyurethane catheter pieces (Arrow International Reading) as described previously. Biofilms were grown in RPMI 1640 (pH 7.0) and Candida cells were allowed to adhere to the substrate for 90 min.
Diclofenac (2 mM) was administered during the period of adhesion of C. albicans cells on the catheters and throughout the period of biofilm formation. Catheter fragments containing diclofenac-pretreated or untreated mature biofilms were washed and subsequently incubated with caspofungin (125 μM) or water in the presence or absence of diclofenac (2 mM) for 24 h, respectively. Biofilms were washed and quantified by determination of colony forming units. Untreated biofilms were considered as controls. Statistical analysis was performed using unpaired t-test; differences were considered significant if p<0.05. Data are the mean and SEM of five independent experiments using at least two catheters per test group.
Similar results were obtained when assessing the antibiofilm effect of caspofungin against mature biofilms, which were formed on diclofenac-soaked catheter fragments versus those formed on unsoaked catheter fragments.

In assay [3] the test system is C. albicans CAF2 biofilms on implanted catheter fragments. The experiment in a line: Rat subcutaneous catheter infection model (in vivo biofilm susceptibility). Also on record: species or system Candida albicans. As to the method: A rat subcutaneous catheter infection model was used for in vivo biofilm susceptibility studies, in which 6 rats were treated with sterile saline (control, 40 catheters), 6 rats with diclofenac (48 catheters), 5 rats with caspofungin (40 catheters) and 6 rats with a combination of diclofenac and caspofungin (45 catheters).
Diclofenac and caspofungin solutions for intravenous injection were prepared in sterile physiological solution. The administration of diclofenac (3 mg/kg) started immediately after the catheter implant and continued daily up to 9 days. The treatment with caspofungin (3 mg/kg) was initiated after 48 h of in vivo biofilm development and maintained by daily injections for 7 days. Sterile saline was administered to the control group. Further analysis and quantification of the number of cells per individual biofilm was performed as previously described. Statistical analysis was performed using unpaired t-test; differences were considered significant if p<0.05. Data are the means and SEM of 2 independent experiments. Six independent catheters retrieved from each test group were used for scanning electron microscopy (SEM) analyses. Prior to the SEM analysis, each catheter fragment was cut longitudinally through the lumen and subsequently prepared for microscopy as previously described.

In assay [4] the test system is biofilms of C. albicans CAF2-1. As to the kind of experiment: MIC50 against biofilms (XTT reduction assay). Type of assay: cell-based, Candida albicans. The following applies: for MIC50: Candida albicans. On the procedure: as §1
(§2) Similar results were obtained by determination of the MIC50 values. The susceptibility testing and determination of minimal inhibitory concentrations (MIC) of diclofenac and caspofungin, and combinations thereof that inhibit fungal growth by 50% (MIC50) were performed according the NCCLS M27-A3 protocol (2008).

Assay [5] deals with C. albicans biofilm cells. The settings on record: caspofungin doses 0.05 μM-0.5 μM, background statement; cited from earlier work.
For assay [6], the system named is planktonic cultures of C. albicans CAF2-1. As to the kind of experiment: MIC50 against planktonic cultures (NCCLS M27-A3). The assay is classed as cell-based, Candida albicans. The following applies: for MIC50: Candida albicans, planktonic. On the procedure: as §2
The subject of assay [7] is C. albicans biofilms of wild type CAF2. The experiment in a line: Biofilm activity assay, crystal violet quantification (BEC50). Type of assay: cell-based, Candida albicans. The settings on record: 500 μg/ml diclofenac in the absence of miconazole. On the procedure:
Biofilm activity assay. The activity of miconazole and fluconazole against 16 h-old C. albicans biofilms (10^7 cells/well) was assessed using the crystal violet quantification method. The biofilm-eradicating capacity of a compound was determined as the minimal concentration resulting in 50% eradication of the biofilm (BEC50).
Miconazole sensitivity was analyzed of biofilms of C. albicans homozygous null mutants affected in genes involved in the cyclic AMP signaling pathway, namely Δcdc35, Δras1, Δpde1, Δpde2 and Δefg1. To this end, the inventors incubated 16 h-old C. albicans biofilms with various concentrations of miconazole for 24 h and determined the remaining biomass using the crystal violet quantification method.
To this end, cultures of the WT CAF2-1 were grown overnight (2×10^8 cells/ml) in YPD (1% yeast extract, 2% peptone, 2% glucose) and washed 3 times in PBS (pH 7.4). After dilution (OD600=0.5) in SC (1% CSM, complete amino acid supplement mixture, 1% YNB, yeast nitrogen base; 2% glucose), the cultures were resuspended (100 μl/well) in a 96well microtiter plate. After 1 h of adhesion, the adherent WT cells were incubated with or without 500 μg/ml diclofenac and allowed biofilm formation for 16 h. Next, the resulting biofilms were washed with PBS and treated with various concentrations of miconazole for 24 h in the absence or presence of diclofenac. After washing, the remaining biomass was determined using the crystal violet quantification method.
The biofilm-eradicating capacity of a compound was determined as the minimal concentration resulting in 50% eradication of the biofilm (BEC50).

The subject of assay [8] is C. albicans biofilm cells. As to the kind of experiment: Membrane permeability by propidium iodide fluorescence. The assay is classed as cell-based, Candida albicans. The following applies: 2 mM diclofenac during adhesion and growth phase, 24 h, RPMI 1640. On the procedure:
This was further investigated by evaluating the membrane-disruptive activity of diclofenac on in vitro grown C. albicans biofilm cells by measuring the fluorescence enhancement of propidium iodide (PI). To this end, C. albicans biofilms were grown in RPMI 1640 (pH 7.0) in the presence or absence of diclofenac (ranging from 0.25-4 mM) for 24 h. Next, the biofilm cells were incubated with 3% PI for 20 minutes at room temperature in the dark. Membrane permeability was quantified by measurement of PI fluorescence (excitation at 535 nm, emission at 617 nm).

Assay [9] deals with C. albicans cells. As to the kind of experiment: Morphology of planktonic and biofilm cells (fluorescence microscopy). The following applies: pretreated with diclofenac alone, 0.5-3 mM. The assay is classed as cell-based, Candida albicans. On the procedure: However, the morphology of biofilm cells pretreated with diclofenac alone (ranging from 0.5-3 mM), was not altered.
Assay [10] concerns C. albicans WT biofilms. The experiment in a line: Biofilm survival by CFU determination (plating on YPD). The assay is classed as cell-based, Candida albicans. The settings on record: 500 μg/ml diclofenac alone. On the procedure:
Using the same setup as in Example 2, WT biofilms grown in the presence or absence of diclofenac (500 μg/ml) or Δefg1 biofilms were incubated with various concentrations of Amphotericin B (AmB) (2.5-10 μg/ml) for 24 h, both in the presence or absence of diclofenac. After washing, the remaining living cells within the biofilm were determined by plating on YPD and determination of colony forming units (CFUs).

Where [11] appears, read: rats, caspofungin 3 mg/kg 7 days with 48 h diclofenac-pretreatment and further diclofenac 3 mg/kg.

`CC[C@H](C)C[C@H](C)CCCCCCCCC(=O)N[C@H]1C[C@@H](O)[C@@H](NCCN)NC(=O)[C@@H]2[C@@H](O)CCN2C(=O)[C@H]([C@H](O)CCN)NC(=O)[C@H]([C@H](O)[C@@H](O)c2ccc(O)cc2)NC(=O)[C@@H]2C[C@@H](O)CN2C(=O)[C@H]([C@@H](C)O)NC1=O` [caspofungin]: the “drop of % survival compared to diclofenac-untreated biofilms” value in assay [1] is listed as “about 5 fold”. In addition, the “reduction of the number of biofilm cells compared to control treatment” value was “did not result in a statistically significant reduction; also recorded: did not display significant activity” in [2] (125 μM caspofungin alone, 24 h, untreated/unsoaked catheters) and “at least 17 fold” in [2] (biofilms grown on diclofenac-soaked catheters, 125 μM caspofungin). Besides, the “reduction of the number of in vitro biofilm cells compared to untreated biofilms” value in assay [2] (2 mM diclofenac during biofilm growth, then 125 μM caspofungin 24 h) was “at least 12 fold”. The “sterile catheter fragments retrieved” value amounted to 29% in assay [3] (rats treated with both caspofungin and diclofenac); 7.5% in [3] (rats treated with caspofungin alone). Further, the “number of sterile catheters retrieved” value in assay [3] (rats treated with both caspofungin and diclofenac (45 catheters)) is reported as “thirteen”; in [3] (rats treated with caspofungin alone (40 catheters)), “three”. Further, the “reduction in biofilm cell numbers compared to control treatment” value in assay [3] (setting [11]) is “more than 15 fold”. Also, the “reduction in cell numbers compared to caspofungin treatment alone” value in assay [3] (setting [11]) is “more than 5 fold”. Also, in assay [3] (rats, caspofungin alone 3 mg/kg daily injections for 7 days), the “reduction in the number of surviving biofilm cells compared to control treatment” value is “more than 10 fold”. Also, the “biofilm structure by scanning electron microscopy” value in [3] (rats, caspofungin without diclofenac-pretreatment) is “biofilm cells formed in minor clusters”; in [3] (rats, diclofenac and caspofungin together), “only scattered yeast cells and hyphae were observed”. Also, the MIC50 in [4] (biofilms, caspofungin alone) was 6 µM; in assay [4] (biofilms, caspofungin in combination with 2 mM diclofenac-pretreatment), less than 0.75 µM; in assay [4] (coincubation of mature biofilms with caspofungin and 2 mM diclofenac) it was 1.5 µM; in assay [6] (RPMI 1640, caspofungin alone) it was less than 0.05 µM; in assay [6] (combination of caspofungin and 2 mM diclofenac), 0.23 µM. In addition, the “MIC50 against biofilms relative to MIC50 against planktonic cultures” value in assay [4] (caspofungin alone) was “at least 100 times”. The FICI is 0.25 in [4] (diclofenac coincubation/caspofungin combination) and 0.125 in [4] (diclofenac pretreatment/caspofungin combination). Moreover, the “metabolic activity of C. albicans biofilm cells” value in assay [5] is reported as “do not decrease the metabolic activity”.
On to `O=C(O)Cc1ccccc1Nc1c(Cl)cccc1Cl` [diclofenac], for which, in assay [2] (2 mM diclofenac pretreatment alone), the “number of biofilm cells compared to untreated catheters” value was “no significant difference”. Moreover, the “biofilm structure by scanning electron microscopy” value in [3] (rats, diclofenac alone) is “no biofilm-inhibitory effect”. For the same molecule, the “number of biofilm cells on catheters compared to control treatment” value in assay [3] (rats, diclofenac alone 3 mg/kg intravenous daily, 48 h pretreatment and up to 7 days further) is reported as “no significant difference”. Further, the MIC50 in [4] (biofilms, diclofenac alone) turned out to be 2000 µM. Besides, the “remaining C. albicans biofilms compared to untreated WT biofilms” value in assay [7] is given as “about 50%”. Further, the “membrane permeability compared to untreated cells” value in [8] is listed as “significantly increased membrane permeability”. For the same molecule, in assay [9], the “morphology of biofilm cells” value is “not altered”. Also, in assay [6] (diclofenac up to 2 mM), the “inhibitory activity against planktonic cells” value is recorded as “no inhibitory activity”. Besides, the “less biofilm cells compared to untreated WT biofilms” value in assay [10] is given as “about 50%”.
